Literature values in patent US20050123576A1, “Mupirocin compositions for topical use, an improved process of making same and methods of using same” (priority 2003, published 2005).

Assays:
[1] = glycerol, mineral oil, caprylic-capric triglyceride, isopropyl myristate, isopropyl palmitate, octyl dodecanol (Eutanol G), isopropyl stearate
[2] = in the presence of water, acids and bases

solubility in pharmaceutically acceptable carriers [1]: insoluble
stability (hydrolysis and rearrangement reactions) [2]: unstable
SMILES: C/C(=C\C(=O)OCCCCCCCCC(=O)O)C[C@@H]1OC[C@H](C[C@@H]2O[C@H]2[C@@H](C)[C@H](C)O)[C@@H](O)[C@H]1O [Mupirocin]
